# Experimental data taken from US20210379068A1, “METHODS AND MATERIALS FOR TREATING NEUROPSYCHIATRIC DISORDERS” (Mayo Foundation for Medical Education and Research, priority 2018, published 2021).
# What was measured:
# Type in all cases: in vivo, mouse
# [1] = system: senescent cells in the amygdala; experiment: Telomere associated foci (TAF) in basomedial layer of the amygdala, INK-ATTAC mice; details: HFD INK-ATTAC mice, AP20187 vs vehicle
# Method: (§1) INK-ATTAC mice were injected intraperitoneally (i.p.) with AP20187 (10 mg/kg) or vehicle for 3 days every 2 weeks for a total of 8-10 weeks.
# (§2) Paraffin sections were deparaffinized with Histoclear and hydrated in an ethanol gradient followed by water and PBS. Antigen was retrieved by incubation in 0.01M citrate buffer (pH 6.0) at 95° C. for 10 minutes. Slides were placed in blocking buffer (1:60 normal goat serum [S-1000, Vector Laboratories] in 0.1% BSA/PBS) for 60 minutes at room temperature. […] Primary antibodies used (Table 2) were diluted in blocking buffer and applied overnight at 4° C. The next day, slides were washed 3 times with PBS and incubated for 30 minutes with secondary goat, anti-rabbit antibody (1:200; Vector Laboratories #BA-1000) for TAF staining or for 60 minutes with secondary Alexa antibody (Table 1). For TAF staining, Fluorescein-Avidin in PBS (1:500; #A-2011, Vector Lab) was applied to each sample for 20 minutes. Slides were washed 3 times in PBS, which was followed by FISH for TAF detection. […]
# A single, 3 μm-thick section per mouse was used for TAF staining, while for Dcx and Plin2 staining was performed on three 10 μm-thick sections 80 μm-apart. To quantify periventricular lipid accumulation 10-30 images in the periventricular region were taken using the DM5500 widefield fluorescence microscope from Leica with a 10× (for frequency of periventricular glia) or ×40 (for ALISE phenotype of ependymal cells) objective lens. Number of Plin2-positive cells (for frequency of ALISE-positive periventricular glia) or area of Plin2-positive vesicles (for ALISE phenotype of ependymal cells) was assessed using ImageJ software. For identity assessment of Plin2+ cells, 10 μm-thick sections were stained with combination of antibodies for Iba1 (secondary antibody conjugated with Alexa Fluor 488), Plin2 (secondary antibody conjugated with Alexa Fluor 594), and Vimentin (secondary antibody conjugated with Alexa Fluor 647) and quantified for frequency of Plin2+ astrocytes (Iba1−, Vim+) and microglia (Iba1+) in the periventricular region. […]
# [2] = system: senescent cells in perigonadal adipose tissue; experiment: Senescence markers in perigonadal adipose tissue, INK-ATTAC mice on HFD; details: AP20187 vs vehicle
# Method: as §1
# (§3) Total RNA was extracted from white adipose tissue and brain using Trizol (Life Technologies, Carlsbad, Calif.) and reverse transcribed to cDNA with a M-MLV Reverse Transcriptase kit (Life Technologies). Real-time PCR was performed in a 7500 Fast Real Time PCR System (Applied Biosystems, Foster City, Calif.) using TaqMan Fast Universal PCR Master Mix (Life Technologies) and predesigned primers and probes from Applied Biosystems (Assay ID: Mm00494449_m1 [CDKN2A]; Mm04205640_g1 [CDKN1A]; Mm00446191_m1 [IL6]). Target gene expression was expressed as 2-ΔΔCT by the comparative CT method and normalized to the expression of TATA-binding protein (TBP) (Assay ID: Mm01277042 ml [TBP]).
# On the day of the sacrifice, a small piece of adipose tissue was fixed with 2% PFA and 0.5% glutaraldehyde (Sigma) for 15 minutes at room temperature before being incubated overnight in SA-β-Gal solution (150 mM NaCl (Sigma), 2 mM MgCl2 (Sigma), 40 mM Citric Acid (Sigma), 12 mM NaPO3 (Sigma), 400 μg/ml X-gal (Thermofisher), 2.1 mg/ml potassium hexacyanoferrat(II)trihydrate, and 1.65 mg/ml Potassium hexacyanoferrat(III)trihydrate (Sigma), pH 6.0) at 37° C. overnight. Fat chunks were washed with PBS three times and stored in PBS at 4° C. protected from light. Within 3 days, adipose tissue was stained with Hoechst solution (1:5000; Thermofisher), lightly squashed between two 1×3 inch glass slides, and imaged using a light microscope. 10-20 random visual fields were captured at 20× magnification at light exposure identical for all the samples. Images were quantified by manual counting of SA-β-Gal positive cells by a blinded assessor and the data were expressed as percent of total DAPI-positive cells.
# Paraffin sections were deparaffinized with Histoclear and hydrated in an ethanol gradient followed by water and PBS. Antigen was retrieved by incubation in 0.01M citrate buffer (pH 6.0) at 95° C. for 10 minutes. Slides were placed in blocking buffer (1:60 normal goat serum [S-1000, Vector Laboratories] in 0.1% BSA/PBS) for 60 minutes at room temperature. […] Primary antibodies used (Table 2) were diluted in blocking buffer and applied overnight at 4° C. The next day, slides were washed 3 times with PBS and incubated for 30 minutes with secondary goat, anti-rabbit antibody (1:200; Vector Laboratories #BA-1000) for TAF staining or for 60 minutes with secondary Alexa antibody (Table 1). For TAF staining, Fluorescein-Avidin in PBS (1:500; #A-2011, Vector Lab) was applied to each sample for 20 minutes. Slides were washed 3 times in PBS, which was followed by FISH for TAF detection. Briefly, tissues were crosslinked with 4% paraformaldehyde for 20 minutes and dehydrated in graded ethanol. Sections were denatured for 10 minutes at 80° C. in hybridization buffer (70% formamide (Sigma), 25 mM MgCl2, 0.1 M Tris (pH 7.2), and 5% blocking reagent [Roche]) containing 2.5 μg ml^−1 Cy-3-labelled telomere-specific (CCCTAA) peptide nucleic acid probe (Panagene), followed by hybridization for 2 hour at room temperature in the dark. Slides were washed twice with 70% formamide in 2×SSC for 15 minutes, followed by washes in 2×SSC and PBS for 10 minutes. Sections were mounted in Vectashield, DAPI-containing mounting media and imaged.
# A single, 3 μm-thick section per mouse was used for TAF staining, while for Dcx and Plin2 staining was performed on three 10 μm-thick sections 80 μm-apart. To quantify periventricular lipid accumulation 10-30 images in the periventricular region were taken using the DM5500 widefield fluorescence microscope from Leica with a 10× (for frequency of periventricular glia) or ×40 (for ALISE phenotype of ependymal cells) objective lens. Number of Plin2-positive cells (for frequency of ALISE-positive periventricular glia) or area of Plin2-positive vesicles (for ALISE phenotype of ependymal cells) was assessed using ImageJ software. […]
# [3] = system: senescent cells in cortex, cerebellum, and hippocampus; experiment: Senescence markers in cortex, cerebellum and hippocampus, INK-ATTAC mice; details: obese and lean INK-ATTAC mice with and without AP
# Method: as §1, §3
# as §2, with “1).” for “1). For TAF staining, Fluorescein-Avidin in PBS (1:500; #A-2011, Vector Lab) was applied to each sample for 20 minutes. Slides were washed 3 times in PBS, which was followed by FISH for TAF detection.”
# A single, 3 μm-thick section per mouse was used for TAF staining, while for Dcx and Plin2 staining was performed on three 10 μm-thick sections 80 μm-apart. To quantify periventricular lipid accumulation 10-30 images in the periventricular region were taken using the DM5500 widefield fluorescence microscope from Leica with a 10× (for frequency of periventricular glia) or ×40 (for ALISE phenotype of ependymal cells) objective lens. Number of Plin2-positive cells (for frequency of ALISE-positive periventricular glia) or area of Plin2-positive vesicles (for ALISE phenotype of ependymal cells) was assessed using ImageJ software. For identity assessment of Plin2+ cells, 10 μm-thick sections were stained with combination of antibodies for Iba1 (secondary antibody conjugated with Alexa Fluor 488), Plin2 (secondary antibody conjugated with Alexa Fluor 594), and Vimentin (secondary antibody conjugated with Alexa Fluor 647) and quantified for frequency of Plin2+ astrocytes (Iba1−, Vim+) and microglia (Iba1+) in the periventricular region. […] For TAF quantification in depth Z stacking was used (images were captured as stacks separated by 0.4 μm with ×63 objective) followed by ImageJ analysis.
compound,measurement,setting,value
CC[C@H](C(=O)N1CCCC[C@H]1C(=O)O[C@H](CCc1ccc(OC)c(OC)c1)c1cccc(OCC(=O)NCC(CNC(=O)COc2cccc([C@@H](CCc3ccc(OC)c(OC)c3)OC(=O)[C@@H]3CCCCN3C(=O)[C@@H](CC)c3cc(OC)c(OC)c(OC)c3)c2)CN(C)C)c1)c1cc(OC)c(OC)c(OC)c1 [AP],"% of NeuN-pos cells with 2 or more TAF (TAF positive neurons), basomedial layer of the amygdala",[1],significant decrease
same,"mean number of TAF in NeuN-pos cells, basomedial layer of the amygdala",[1],significantly reduced
same,"% of NeuN-pos cells with 2 or more TAF (TAF positive neurons), basomedial layer of the amygdala",[1]; listed as AP20187,significantly reduced
same,"% SA-β-Gal positive cells, perigonadal adipose tissue",[2],significantly reduced
same,"p16Ink4a (RT-PCR), perigonadal adipose tissue",[2],significantly reduced
same,"p21 (PCR), perigonadal adipose tissue",[2],not significantly changed
same,"telomere-associated DNA damage foci (TAF), perigonadal adipose tissue",[2],significantly reduced
same,"γ-H2A.X DNA damage foci, perigonadal adipose tissue",[2],not significantly changed
same,"% SA-β-Gal positive cells, perigonadal adipose tissue",[2]; listed as AP20187,complete rescue
same,"p21 (PCR), perigonadal adipose tissue",[2]; listed as AP20187,no change
same,"γ-H2A.X DNA damage foci, perigonadal adipose tissue",[2]; listed as AP20187,no change
same,"TAF in cortex, cerebellum, hippocampus",[3],No differences
same,"p16 in cortex, cerebellum, hippocampus",[3],No differences
same,"p21 in cortex, cerebellum, hippocampus",[3],No differences
same,"γ-H2A.X in cortex, cerebellum, hippocampus",[3],No differences
